According to ChEMBL document CHEMBL1201862, “PubChem BioAssay data set” (2004):
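Following 48 hours of exposure in 96-well plates, responses at five concentrations were used to interpolate endpoints linearly. GI50 is the concentration that inhibits growth by half.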 Activity calls are given as the source filed them. No stated cut-off is given here; in the data, active = GI50 up to about 1.1 µM and inactive = higher.

How the values were obtained:
Assay in all cases: NCI-60 cell line screen, 48 h
786-0 = tested on: 786-0
A498 = tested on: A498
A549 = tested on: A549
CAKI-1 = tested on: CAKI-1
CCRF-CEM = tested on: CCRF-CEM
COLO 205 = tested on: COLO 205
DLD-1 = tested on: DLD-1
DMS-114 = tested on: DMS-114
DMS-273 = tested on: DMS-273
EKVX = tested on: EKVX
HCT-116 = tested on: HCT-116
HCT-15 = tested on: HCT-15
HL-60 = tested on: HL-60
HOP-62 = tested on: HOP-62
HOP-92 = tested on: HOP-92
HT-29 = tested on: HT-29
IGROV-1 = tested on: IGROV-1
K562 = tested on: K562
KM-20L2 = tested on: KM-20L2
KM12 = tested on: KM12
LOX IMVI = tested on: LOX IMVI
LXFL 529 = tested on: LXFL 529
M14 = tested on: M14
M19-MEL = tested on: M19-MEL
MOLT-4 = tested on: MOLT-4
Malme-3M = tested on: Malme-3M
NCI-H226 = tested on: NCI-H226
NCI-H23 = tested on: NCI-H23
NCI-H460 = tested on: NCI-H460
NCI-H522 = tested on: NCI-H522
OVCAR-3 = tested on: OVCAR-3
OVCAR-4 = tested on: OVCAR-4
OVCAR-5 = tested on: OVCAR-5
OVCAR-8 = tested on: OVCAR-8
RPMI-8226 = tested on: RPMI-8226
RXF 393 = tested on: RXF 393
SF-268 = tested on: SF-268
SF-295 = tested on: SF-295
SF-539 = tested on: SF-539
SK-MEL-5 = tested on: SK-MEL-5
SK-OV-3 = tested on: SK-OV-3
SN12C = tested on: SN12C
SNB-19 = tested on: SNB-19
SNB-75 = tested on: SNB-75
SNB-78 = tested on: SNB-78
SR = tested on: SR
SW-620 = tested on: SW-620
TK-10 = tested on: TK-10
U-251 = tested on: U-251
UACC-257 = tested on: UACC-257
UACC-62 = tested on: UACC-62
UO-31 = tested on: UO-31
XF498 = tested on: XF498
ACHN = tested on: ACHN
BT-549 = tested on: BT-549
DU-145 = tested on: DU-145
HCC 2998 = tested on: HCC 2998
HOP-18 = tested on: HOP-18
Hs-578T = tested on: Hs-578T
MCF7 = tested on: MCF7
MDA-MB-231 = tested on: MDA-MB-231
MDA-MB-435 = tested on: MDA-MB-435
MDA-N = tested on: MDA-N
NCI/ADR-RES = tested on: NCI/ADR-RES
PC-3 = tested on: PC-3
SK-MEL-28 = tested on: SK-MEL-28
SK-MEL-2 = tested on: SK-MEL-2
T47D = tested on: T47D

## O=C(O)c1c[nH]cc1C(=O)O
786-0
  GI50: > 0.1 mM (inactive)
A498
  GI50: > 0.1 mM (inactive)
A549
  GI50: > 0.1 mM (inactive)
CAKI-1
  GI50: > 0.1 mM (inactive)
CCRF-CEM
  GI50: > 0.1 mM (inactive)
COLO 205
  GI50: > 0.1 mM (inactive)
DLD-1
  GI50: > 0.1 mM (inactive)
DMS-114
  GI50: > 0.1 mM (inactive)
DMS-273
  GI50: > 0.1 mM (inactive)
EKVX
  GI50: > 0.1 mM (inactive)
HCT-116
  GI50: > 0.1 mM (inactive)
HCT-15
  GI50: > 0.1 mM
HL-60
  GI50: > 0.1 mM (inactive)
HOP-62
  GI50: > 0.1 mM (inactive)
HOP-92
  GI50: > 0.1 mM (inactive)
HT-29
  GI50: > 0.1 mM (inactive)
IGROV-1
  GI50: > 0.1 mM (inactive)
K562
  GI50: > 0.1 mM (inactive)
KM-20L2
  GI50: > 0.1 mM (inactive)
KM12
  GI50: > 0.1 mM (inactive)
LOX IMVI
  GI50: > 0.1 mM (inactive)
LXFL 529
  GI50: > 0.1 mM (inactive)
M14
  GI50: > 0.1 mM (inactive)
M19-MEL
  GI50: > 0.1 mM (inactive)
MOLT-4
  GI50: > 0.1 mM (inactive)
Malme-3M
  GI50: > 0.1 mM (inactive)
NCI-H226
  GI50: > 0.1 mM (inactive)
NCI-H23
  GI50: > 0.1 mM (inactive)
NCI-H460
  GI50: > 0.1 mM (inactive)
NCI-H522
  GI50: > 0.1 mM (inactive)
OVCAR-3
  GI50: > 0.1 mM (inactive)
OVCAR-4
  GI50: > 0.1 mM (inactive)
OVCAR-5
  GI50: > 0.1 mM (inactive)
OVCAR-8
  GI50: > 0.1 mM (inactive)
RPMI-8226
  GI50: > 0.1 mM (inactive)
RXF 393
  GI50: > 0.1 mM (inactive)
SF-268
  GI50: > 0.1 mM (inactive)
SF-295
  GI50: > 0.1 mM (inactive)
SF-539
  GI50: > 0.1 mM (inactive)
SK-MEL-5
  GI50: > 0.1 mM (inactive)
SK-OV-3
  GI50: > 0.1 mM (inactive)
SN12C
  GI50: > 0.1 mM (inactive)
SNB-19
  GI50: > 0.1 mM (inactive)
SNB-75
  GI50: 0.0964 mM (inactive)
SNB-78
  GI50: > 0.1 mM (inactive)
SR
  GI50: > 0.1 mM (inactive)
SW-620
  GI50: > 0.1 mM (inactive)
TK-10
  GI50: > 0.1 mM (inactive)
U-251
  GI50: > 0.1 mM (inactive)
UACC-257
  GI50: > 0.1 mM (inactive)
UACC-62
  GI50: > 0.1 mM (inactive)
UO-31
  GI50: > 0.1 mM (inactive)
XF498
  GI50: > 0.1 mM (inactive)

## OC[C@H]1O[C@@H](n2cnc3c(S)ncnc32)[C@H](O)[C@@H]1O [THIOINOSINE]
786-0
  GI50: > 2.5 mM (inactive)
A498
  GI50: > 2.2 mM (inactive)
A549
  GI50: > 2.5 mM (inactive)
ACHN
  GI50: > 2.5 mM (inactive)
BT-549
  GI50: > 2.5 mM (inactive)
CAKI-1
  GI50: > 2.5 mM (inactive)
CCRF-CEM
  GI50: 1.12 mM (inactive)
COLO 205
  GI50: > 2.23 mM (inactive)
DMS-114
  GI50: 1.83 mM (inactive)
DMS-273
  GI50: 0.971 mM (inactive)
DU-145
  GI50: 1.39 mM (inactive)
EKVX
  GI50: > 2.5 mM (inactive)
HCC 2998
  GI50: > 2.5 mM (inactive)
HCT-116
  GI50: 2.39 mM (inactive)
HCT-15
  GI50: > 2.5 mM
HL-60
  GI50: > 1.76 mM (inactive)
HOP-18
  GI50: 2.07 mM (inactive)
HOP-62
  GI50: 2.12 mM (inactive)
HOP-92
  GI50: 1.05 mM (inactive)
HT-29
  GI50: 2.26 mM (inactive)
Hs-578T
  GI50: > 2.44 mM (inactive)
IGROV-1
  GI50: > 2.18 mM (inactive)
K562
  GI50: 1.29 mM (inactive)
KM-20L2
  GI50: > 2.5 mM (inactive)
KM12
  GI50: > 2.5 mM (inactive)
LOX IMVI
  GI50: 1.84 mM (inactive)
M14
  GI50: 2.36 mM (inactive)
M19-MEL
  GI50: > 2.5 mM (inactive)
MCF7
  GI50: 2.29 mM (inactive)
MDA-MB-231
  GI50: > 2.5 mM (inactive)
MDA-MB-435
  GI50: 2.33 mM (inactive)
MDA-N
  GI50: > 2.31 mM (inactive)
MOLT-4
  GI50: 2.3 mM (inactive)
Malme-3M
  GI50: 1.86 mM (inactive)
NCI-H226
  GI50: > 2.5 mM (inactive)
NCI-H23
  GI50: > 2.5 mM (inactive)
NCI-H460
  GI50: 2.14 mM (inactive)
NCI-H522
  GI50: 2.16 mM (inactive)
NCI/ADR-RES
  GI50: 2.04 mM (inactive)
OVCAR-3
  GI50: 1.16 mM (inactive)
OVCAR-4
  GI50: 1.52 mM (inactive)
OVCAR-5
  GI50: > 2.5 mM (inactive)
OVCAR-8
  GI50: > 2.44 mM (inactive)
PC-3
  GI50: > 2.5 mM (inactive)
RPMI-8226
  GI50: 1.4 mM (inactive)
RXF 393
  GI50: 2.46 mM (inactive)
SF-268
  GI50: > 2.5 mM (inactive)
SF-295
  GI50: > 2.5 mM (inactive)
SF-539
  GI50: > 2.5 mM (inactive)
SK-MEL-28
  GI50: > 2.5 mM (inactive)
SK-MEL-2
  GI50: 1.49 mM (inactive)
SK-MEL-5
  GI50: > 2.5 mM (inactive)
SK-OV-3
  GI50: 0.603 mM (inactive)
SN12C
  GI50: > 2.5 mM (inactive)
SNB-19
  GI50: > 1.58 mM (inactive)
SNB-75
  GI50: > 2.12 mM (inactive)
SNB-78
  GI50: > 2.5 mM (inactive)
SR
  GI50: 1.89 mM (inactive)
SW-620
  GI50: > 2.5 mM (inactive)
T47D
  GI50: 1.83 mM (inactive)
TK-10
  GI50: > 2.5 mM (inactive)
U-251
  GI50: > 2.45 mM (inactive)
UACC-257
  GI50: > 2.5 mM (inactive)
UACC-62
  GI50: 1.25 mM (inactive)
XF498
  GI50: > 1.26 mM (inactive)
